Source: ChEMBL document CHEMBL4392860, “Characterization of the substrate scope of an alcohol dehydrogenase commonly used as methanol dehydrogenase” (Bioorg Med Chem Lett, 2019)

Columns and labels:
Settings in all cases: DSM 2334
[1] = tested on: Geobacillus stearothermophilus
Description: Substrate activity at Geobacillus stearothermophilus DSM 2334 ADH expressed in Escherichia coli BL21 (DE3) assessed as Kcat in 50 mM HEPES buffer at pH 7.5 at 23 degC by MTT dye based Lineweaver-Burk plot analysis

[2] = tested on: Geobacillus stearothermophilus; remark: listed apart in the source
Description: Substrate activity at Geobacillus stearothermophilus DSM 2334 ADH expressed in Escherichia coli BL21 (DE3) assessed as Kcat/Km ratio in 50 mM HEPES buffer at pH 7.5 at 23 degC by MTT dye based Lineweaver-Burk plot analysis

[3] = tested on: Geobacillus stearothermophilus; remark: listed apart in the source
Description: Substrate activity at Geobacillus stearothermophilus DSM 2334 ADH expressed in Escherichia coli BL21 (DE3) assessed as Km in 50 mM HEPES buffer at pH 7.5 at 23 degC by MTT dye based Lineweaver-Burk plot analysis

SMILES | kcat [1] [s⁻¹] | kcat/Km [2] [M⁻¹ s⁻¹] | Km [3] [mM]
CO | 0.013 | 0.044 | –
CC(C)O | 0.076 | 60.3 | 1.26
OCCCO | 0.041 | 1.71 | 23.6
CC(C)(C)O | 0.026 | 0.046 | –
CCC(C)O (configuration not stated) | 0.094 | 3.96 | 23.8

More lines, now with the values ahead:

kcat [1] [s⁻¹] | kcat/Km [2] [M⁻¹ s⁻¹] | Km [3] [mM] | SMILES
0.019 | 0.46 | 39.8 | CCCO
0.004 | 1.67 | 2.45 | CCCCO
0.019 | 6.26 | 2.95 | CCO
